This passage reports IC50 results from US11566007B2, “Ras inhibitors” (Revolution Medicines, Inc., priority 2019, dated 2023).

Common to all, as to assay type: biochemical
The target in one assay is K-Ras G12C (Homo sapiens (Human), UniProt P01116+P62937, G12C). Description: Ras-Raf (BRAF RBD) disruption / FRET / MOA assay, KRAS G12C. Conditions: KRAS G12C; Ras-Raf disruption/FRET/MOA assay; read-out: IC50* KRAS G12C FRET data. In a few lines:
(§1)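 Compounds, top final concentration 30 μM in 10-point 3-fold series, incubated 3 hours at 25° C with nucleotide-loaded Ras, cyclophilin A and BRAF RBD.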

In another assay the target is KRAS G12S (Homo sapiens (Human), UniProt P01116+P62937, G12S). The assay can be described thus: Ras-Raf (BRAF RBD) disruption / FRET / MOA assay, KRAS G12S. The note with it: Ras-Raf disruption/FRET/MOA assay; class symbols; read-out: KRAS G12S FRET data IC50. Summed up:
as §1

The next assay has as its target KRAS G12D (Homo sapiens (Human), UniProt P01116+P62937, G12D). The assay can be described thus: Ras-Raf (BRAF RBD) disruption / FRET / MOA assay, KRAS G12D. The note with it: Ras-Raf disruption/FRET/MOA assay; class symbols; read-out: KRAS G12D FRET data IC50. In a few lines:
as §1

The target in another assay is KRAS G12V (Homo sapiens (Human), UniProt P01116+P62937, G12V). Description: Ras-Raf (BRAF RBD) disruption / FRET / MOA assay, KRAS G12V. The note with it: read-out: IC50* KRAS G12V FRET data. In a few lines:
as §1

The target in another assay is KRAS WT (Homo sapiens (Human), UniProt P01116+P62937). The assay can be described thus: Ras-Raf (BRAF RBD) disruption / FRET / MOA assay, KRAS WT. The note with it: read-out: IC50* KRAS WT FRET data. In a few lines:
as §1

A further assay deals with KRAS G13D (Homo sapiens (Human), UniProt P01116+P62937, G13D). The assay can be described thus: Ras-Raf (BRAF RBD) disruption / FRET / MOA assay, KRAS G13D. The note with it: read-out: IC50* KRAS G13D FRET data. Summed up: as §1
KRAS G13D, sequence (P01116-2 other isoform, or with tags, fused parts or gaps G13D): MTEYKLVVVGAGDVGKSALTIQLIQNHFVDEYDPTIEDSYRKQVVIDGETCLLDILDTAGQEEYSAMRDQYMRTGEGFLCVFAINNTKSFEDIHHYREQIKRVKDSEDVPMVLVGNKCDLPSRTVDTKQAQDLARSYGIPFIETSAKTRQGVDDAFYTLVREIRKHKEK
KRAS G13D, sequence (P62937 whole entry): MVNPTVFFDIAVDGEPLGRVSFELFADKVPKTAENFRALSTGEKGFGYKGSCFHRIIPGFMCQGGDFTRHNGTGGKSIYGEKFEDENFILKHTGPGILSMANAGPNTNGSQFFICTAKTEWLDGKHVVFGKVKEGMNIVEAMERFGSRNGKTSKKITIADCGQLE
The target in the next assay is KRAS Q61H (Homo sapiens (Human), UniProt P01116+P62937, Q61H). Description: Ras-Raf (BRAF RBD) disruption / FRET / MOA assay, KRAS Q61H. Conditions: Ras-Raf disruption/FRET/MOA assay; class symbols; read-out: KRAS Q61H FRET data IC50. In a few lines:
(§2)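 TR-FRET disruption of nucleotide-loaded Ras binding to BRAF RBD via compound-driven ternary complex with cyclophilin A. Compound as 10-point 3-fold series from 30 μM final, 3 h at 25° C, then anti-His Eu-W1024 (10 nM) and anti-GST allophycocyanin (50 nM) for 1.5 h. IC50 from decreased FRET ratio versus DMSO.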

Another assay has as its target NRAS Q61K (Homo sapiens (Human), UniProt P01111+P62937, Q61K). The assay can be described thus: Ras-Raf (BRAF RBD) disruption / FRET / MOA assay, NRAS Q61K. Conditions: NRAS Q61K; Ras-Raf disruption/FRET/MOA assay; read-out: IC50* NRAS Q61K FRET data. In a few lines:
as §2

A further assay concerns the target NRAS WT (Homo sapiens (Human), UniProt P01111+P62937). The assay can be described thus: Ras-Raf (BRAF RBD) disruption / FRET / MOA assay, NRAS WT. The note with it: read-out: IC50* NRAS WT FRET data. Summed up:
as §2

Bounds are passed on as bounds.

KRAS G12S, sequence (P01116-2 other isoform, or with tags, fused parts or gaps G12S): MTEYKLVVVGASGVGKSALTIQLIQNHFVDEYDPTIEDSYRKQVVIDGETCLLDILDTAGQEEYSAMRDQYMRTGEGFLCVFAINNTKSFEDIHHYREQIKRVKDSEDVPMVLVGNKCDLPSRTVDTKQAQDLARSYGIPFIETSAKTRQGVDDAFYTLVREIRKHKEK
KRAS G12S, sequence (P62937 whole entry): as the sequence (P62937 whole entry) above
KRAS Q61H, sequence (P01116-2 other isoform, or with tags, fused parts or gaps Q61H): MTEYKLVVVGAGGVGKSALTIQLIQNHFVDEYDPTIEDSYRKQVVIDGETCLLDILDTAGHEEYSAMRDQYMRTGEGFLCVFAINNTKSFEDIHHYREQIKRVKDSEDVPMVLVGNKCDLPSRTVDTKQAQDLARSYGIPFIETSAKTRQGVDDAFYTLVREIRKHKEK
KRAS Q61H, sequence (P62937 whole entry): as the sequence (P62937 whole entry) above
KRAS G12D, sequence (P01116-2 other isoform, or with tags, fused parts or gaps G12D): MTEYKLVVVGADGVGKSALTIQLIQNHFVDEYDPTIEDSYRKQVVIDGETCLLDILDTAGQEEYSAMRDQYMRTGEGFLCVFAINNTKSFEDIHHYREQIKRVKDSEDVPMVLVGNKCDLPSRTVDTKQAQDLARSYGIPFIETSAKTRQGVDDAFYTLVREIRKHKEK
KRAS G12D, sequence (P62937 whole entry): as the sequence (P62937 whole entry) above
KRAS WT, sequence (P01116-2 other isoform, or with tags, fused parts or gaps): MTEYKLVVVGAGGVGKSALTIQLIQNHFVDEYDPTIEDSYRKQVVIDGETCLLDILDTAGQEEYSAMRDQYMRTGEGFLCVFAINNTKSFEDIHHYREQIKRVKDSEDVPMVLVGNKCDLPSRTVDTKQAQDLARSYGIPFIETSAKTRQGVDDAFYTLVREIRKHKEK
KRAS WT, sequence (P62937 whole entry): as the sequence (P62937 whole entry) above
NRAS WT, sequence (P01111 whole entry): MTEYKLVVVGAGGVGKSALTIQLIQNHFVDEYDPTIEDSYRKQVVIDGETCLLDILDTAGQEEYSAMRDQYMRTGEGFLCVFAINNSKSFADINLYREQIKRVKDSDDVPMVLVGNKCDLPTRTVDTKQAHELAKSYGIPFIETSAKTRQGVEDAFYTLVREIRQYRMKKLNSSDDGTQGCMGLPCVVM
NRAS WT, sequence (P62937 whole entry): as the sequence (P62937 whole entry) above
K-Ras G12C, sequence (P01116-2 other isoform, or with tags, fused parts or gaps G12C): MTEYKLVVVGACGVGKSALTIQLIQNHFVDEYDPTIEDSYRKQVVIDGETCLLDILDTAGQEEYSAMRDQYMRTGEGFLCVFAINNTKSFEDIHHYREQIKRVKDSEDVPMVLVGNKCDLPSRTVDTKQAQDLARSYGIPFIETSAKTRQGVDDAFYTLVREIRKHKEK
K-Ras G12C, sequence (P62937 whole entry): as the sequence (P62937 whole entry) above
NRAS Q61K, sequence (P01111 whole entry Q61K): as the sequence (P01111 whole entry) above, with Q61K counted along it
NRAS Q61K, sequence (P62937 whole entry): as the sequence (P62937 whole entry) above
KRAS G12V, sequence (P01116-2 other isoform, or with tags, fused parts or gaps G12V): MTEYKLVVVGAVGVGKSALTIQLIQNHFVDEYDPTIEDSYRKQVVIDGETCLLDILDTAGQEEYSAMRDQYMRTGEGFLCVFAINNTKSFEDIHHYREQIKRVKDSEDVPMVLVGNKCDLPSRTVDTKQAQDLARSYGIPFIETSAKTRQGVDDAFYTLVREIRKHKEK
KRAS G12V, sequence (P62937 whole entry): as the sequence (P62937 whole entry) above

Regarding `C=CC(=O)N1CC[C@H](C(=O)N(C)[C@H](C(=O)N[C@H]2CC3=NC=C(O3)c3ccc4c(c3)c(c(-c3cccnc3[C@H](C)OC)n4CC)CC(C)(C)COC(=O)[C@@H]3CCCN(N3)C2=O)C(C)C)C1` (atropisomer, axis not shown) [Example A278], the IC50 (commonly the concentration that gives 50% inhibition) was 100 to 1000 nM on K-Ras G12C; 1000 to 10000 nM on KRAS G12S; > 10000 nM on KRAS G12D; 1000 to 10000 nM on KRAS G12V; 1000 to 10000 nM at KRAS WT; 1000 to 10000 nM at KRAS G13D. Moreover, the half-maximal inhibitory concentration (IC50) at KRAS Q61H, on NRAS Q61K and at NRAS WT was 1000 to 10000 nM in each case.

For `CCn1c(-c2cccnc2[C@H](C)OC)c2c3cc(ccc31)-c1cccc(c1)C[C@H](NC(=O)[C@H](C(C)C)N(C)C(=O)[C@H]1CCN(C(=O)C#CC(C)(C)N(C)C)C1)C(=O)N1CCC[C@H](N1)C(=O)OCC(C)(C)C2` (atropisomer, axis not shown) [Example A290], the IC50 on K-Ras G12C was < 10 nM; at KRAS G12S it was 1000 to 10000 nM; on KRAS G12D, > 10000 nM; on KRAS G12V it was 1000 to 10000 nM; on KRAS WT, 1000 to 10000 nM; on KRAS G13D it was 1000 to 10000 nM. Moreover, the 50% inhibitory concentration (IC50) on KRAS Q61H, on NRAS Q61K and on NRAS WT was 1000 to 10000 nM throughout.

On to `C=CS(=O)(=O)N1CCC2(CCN([C@H](C(=O)N[C@H]3Cc4cc(O)cc(c4)-c4ccc5c(c4)c(c(-c4cccnc4[C@H](C)OC)n5CC)CC(C)(C)COC(=O)[C@@H]4CCCN(N4)C3=O)C(C)C)C2=O)CC1` (atropisomer, axis not shown) [Example A299], for which the 50% inhibitory concentration (IC50) is < 10 nM at K-Ras G12C; 10 to 100 nM at KRAS G12S; 1000 to 10000 nM on KRAS G12D; 100 to 1000 nM on KRAS G12V; 10 to 100 nM on KRAS WT; 100 to 1000 nM at KRAS G13D. The figures for the IC50 on KRAS Q61H, at NRAS Q61K and at NRAS WT were < 10 nM, 10 to 100 nM and 10 to 100 nM, respectively.

On to `CO[C@@H](C)c1ncccc1-c1c2c3cc(ccc3n1CC(F)(F)F)-c1csc(n1)C[C@H](NC(=O)[C@@H](COC1CN(C(=O)C#CC(C)(C)N(C)C)C1)C(C)C)C(=O)N1CCC[C@H](N1)C(=O)OCC(C)(C)C2` (atropisomer, axis not shown) [Example A343], for which the half-maximal inhibitory concentration (IC50) on K-Ras G12C was < 10 nM; at KRAS G12S, 1000 to 10000 nM; on KRAS G12D, > 10000 nM; at KRAS G12V, 1000 to 10000 nM; on KRAS WT it was 1000 to 10000 nM; at KRAS G13D, > 10000 nM. The IC50 at KRAS Q61H, at NRAS Q61K and at NRAS WT was 1000 to 10000 nM in each case.

With `C=CC(=O)N1CC[C@H](C(=O)N(C)[C@H](C(=O)N[C@H]2Cc3cc(cc(C(F)F)c3)-c3ccc4c(c3)c(c(-c3cc(N5CCN(C)CC5)cnc3[C@H](C)OC)n4CC(F)(F)F)CC(C)(C)COC(=O)[C@@H]3CCCN(N3)C2=O)C(C)C)C1` (atropisomer, axis not shown) [Example A357], the concentration for half-maximal inhibition (IC50) at K-Ras G12C is 100 to 1000 nM; at KRAS G12S, 100 to 1000 nM; on KRAS G12D, 1000 to 10000 nM; at KRAS G12V, 100 to 1000 nM; at KRAS WT it was 100 to 1000 nM; at KRAS G13D, 100 to 1000 nM. Besides, the results for the IC50 on KRAS Q61H, at NRAS Q61K and on NRAS WT were 100 to 1000 nM, 1000 to 10000 nM and 100 to 1000 nM, respectively.

For the compound `CO[C@@H](C)c1ncccc1-c1c2c3cc(ccc3n1CC(F)(F)F)-c1cccc(c1)C[C@H](NC(=O)[C@@H](COC1CN(C(=O)C#CC(C)(C)N(C)C)C1)C(C)C)C(=O)N1CCC[C@H](N1)C(=O)OCC(C)(C)C2` (atropisomer, axis not shown) [Example A376], the IC50 is < 10 nM on K-Ras G12C; 1000 to 10000 nM at KRAS G12S; > 10000 nM at KRAS G12D; 1000 to 10000 nM at KRAS G12V; 1000 to 10000 nM at KRAS WT; > 10000 nM at KRAS G13D. Besides, the concentration for half-maximal inhibition (IC50) on KRAS Q61H was 1000 to 10000 nM; on NRAS Q61K, > 10000 nM; on NRAS WT, 1000 to 10000 nM.

Consider `C=CC(=O)N1C[C@H](C)N(C(=O)N(C)[C@H](C(=O)N[C@H]2Cc3nc(cs3)-c3ccc4c(c3)c(c(-c3cccnc3[C@H](C)OC)n4CC)CC(C)(C)COC(=O)[C@@H]3CCCN(N3)C2=O)C(C)C)C[C@@H]1C` (atropisomer, axis not shown) [Example A385], for which the concentration for half-maximal inhibition (IC50) at K-Ras G12C is 10 to 100 nM; at KRAS G12S, 10 to 100 nM; at KRAS G12D it was 100 to 1000 nM; at KRAS G12V it was 100 to 1000 nM; at KRAS WT, 10 to 100 nM; at KRAS G13D, 100 to 1000 nM. Also, the IC50 at KRAS Q61H, at NRAS Q61K and on NRAS WT was 10 to 100 nM in each case.

As to `C=CC(=O)N1CCC12CN(C(=O)N(C)[C@H](C(=O)N[C@H]1Cc3nc(cs3)-c3ccc4c(c3)c(c(-c3cccnc3[C@H](C)OC)n4CC)CC(C)(C)COC(=O)[C@@H]3CCCN(N3)C1=O)C(C)C)C2` (atropisomer, axis not shown) [Example A393], the IC50 on K-Ras G12C lay within 100 to 1000 nM; on KRAS G12S, 100 to 1000 nM; on KRAS G12D, 1000 to 10000 nM; at KRAS G12V it was 1000 to 10000 nM; at KRAS WT it was 100 to 1000 nM; on KRAS G13D, 1000 to 10000 nM. In addition, the concentration for half-maximal inhibition (IC50) on KRAS Q61H, on NRAS Q61K and at NRAS WT was 100 to 1000 nM in each case.

As to `CCn1c(-c2cccnc2[C@H](C)OC)c2c3cc(ccc31)-c1cc(F)cc(c1)C[C@H](NC(=O)[C@@H](COC1CN(C(=O)C#CC(C)(C)N(C)C)C1)C(C)C)C(=O)N1CCC[C@H](N1)C(=O)OCC(C)(C)C2` (atropisomer, axis not shown) [Example A403], the IC50 was < 10 nM on K-Ras G12C; > 10000 nM on KRAS G12S; > 10000 nM on KRAS G12D; 1000 to 10000 nM on KRAS G12V; > 10000 nM on KRAS WT; > 10000 nM on KRAS G13D. The concentration for half-maximal inhibition (IC50) is 1000 to 10000 nM at KRAS Q61H, > 10000 nM on NRAS Q61K and > 10000 nM on NRAS WT.

For the compound `C=CC(=O)N1CC2(CCN2C(=O)N(C)[C@H](C(=O)N[C@H]2Cc3nc(cs3)-c3ccc4c(c3)c(c(-c3cccnc3[C@H](C)OC)n4CC)CC(C)(C)COC(=O)[C@@H]3CCCN(N3)C2=O)C(C)C)C1` (atropisomer, axis not shown) [Example A407], the half-inhibitory concentration (IC50) on K-Ras G12C was < 10 nM; at KRAS G12S, 100 to 1000 nM; at KRAS G12D, 100 to 1000 nM; on KRAS G12V, 100 to 1000 nM; at KRAS WT it was 100 to 1000 nM; on KRAS G13D it was 100 to 1000 nM. The IC50 on KRAS Q61H, at NRAS Q61K and on NRAS WT was 10 to 100 nM throughout.

Regarding `C=CC(=O)N1CC[C@H](C(=O)N(C)[C@H](C(=O)N[C@H]2CC3=NN=C(O3)c3ccc4c(c3)c(c(-c3cccnc3[C@H](C)OC)n4CC)CC(C)(C)COC(=O)[C@@H]3CCCN(N3)C2=O)C(C)C)C1` (atropisomer, axis not shown) [Example A447], the IC50 on K-Ras G12C was 100 to 1000 nM; at KRAS G12S, 1000 to 10000 nM; on KRAS G12D it was > 10000 nM; at KRAS G12V, 1000 to 10000 nM; at KRAS WT it was 1000 to 10000 nM; on KRAS G13D, > 10000 nM. Besides, the 50% inhibitory concentration (IC50) on KRAS Q61H is 1000 to 10000 nM; at NRAS Q61K, > 10000 nM; on NRAS WT, 1000 to 10000 nM.
